The target in one assay is c-Raf (Homo sapiens, UniProt P04049). Nature of the assay: Luciferase-coupled chemiluminescence kinase assay (ATP consumption), c-Raf. It counts as biochemical. The method in brief:
(§1)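 Read-out: percent ATP consumed, quantified by luciferase/luciferin chemiluminescence after the kinase step. ATP consumption was held at 25-60%. Kinase ([…]) plus compound were preincubated 30 min at RT in Tris pH 7.5 buffer with MgCl2, Triton and DTT, then reacted with ATP for 3 h.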

Another assay deals with B-Raf (Homo sapiens, UniProt P15056). Briefly: Luciferase-coupled chemiluminescence kinase assay (ATP consumption), B-Raf. The assay is classed as biochemical. In outline: as §1
Setting [1] is: read-out: cRaf-1 (inhibition indicated as IC50).
Setting [2] is: read-out: bRaf (inhibition indicated as IC50).

pIC50: −log10 of the molar value. Read-outs that look alike come from different tables or passages of the source.

c-Raf, sequence (P04049 whole entry): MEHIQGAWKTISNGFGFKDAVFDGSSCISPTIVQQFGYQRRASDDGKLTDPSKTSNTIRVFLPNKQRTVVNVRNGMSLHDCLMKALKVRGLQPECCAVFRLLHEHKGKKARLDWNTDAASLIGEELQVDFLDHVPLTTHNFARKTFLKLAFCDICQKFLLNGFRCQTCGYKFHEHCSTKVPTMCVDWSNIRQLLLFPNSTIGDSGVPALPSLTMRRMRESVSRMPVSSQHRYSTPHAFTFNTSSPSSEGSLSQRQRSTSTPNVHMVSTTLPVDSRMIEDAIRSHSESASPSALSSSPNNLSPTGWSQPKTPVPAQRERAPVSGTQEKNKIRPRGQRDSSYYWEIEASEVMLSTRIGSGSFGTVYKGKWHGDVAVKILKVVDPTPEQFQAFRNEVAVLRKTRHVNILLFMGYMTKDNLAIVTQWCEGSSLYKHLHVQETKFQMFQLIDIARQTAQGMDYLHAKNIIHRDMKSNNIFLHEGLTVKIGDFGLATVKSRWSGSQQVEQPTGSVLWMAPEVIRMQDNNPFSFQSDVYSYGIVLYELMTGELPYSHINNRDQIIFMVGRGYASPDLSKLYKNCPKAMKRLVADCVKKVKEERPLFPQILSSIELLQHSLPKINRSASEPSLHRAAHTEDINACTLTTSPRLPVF
B-Raf, sequence (P15056 whole entry): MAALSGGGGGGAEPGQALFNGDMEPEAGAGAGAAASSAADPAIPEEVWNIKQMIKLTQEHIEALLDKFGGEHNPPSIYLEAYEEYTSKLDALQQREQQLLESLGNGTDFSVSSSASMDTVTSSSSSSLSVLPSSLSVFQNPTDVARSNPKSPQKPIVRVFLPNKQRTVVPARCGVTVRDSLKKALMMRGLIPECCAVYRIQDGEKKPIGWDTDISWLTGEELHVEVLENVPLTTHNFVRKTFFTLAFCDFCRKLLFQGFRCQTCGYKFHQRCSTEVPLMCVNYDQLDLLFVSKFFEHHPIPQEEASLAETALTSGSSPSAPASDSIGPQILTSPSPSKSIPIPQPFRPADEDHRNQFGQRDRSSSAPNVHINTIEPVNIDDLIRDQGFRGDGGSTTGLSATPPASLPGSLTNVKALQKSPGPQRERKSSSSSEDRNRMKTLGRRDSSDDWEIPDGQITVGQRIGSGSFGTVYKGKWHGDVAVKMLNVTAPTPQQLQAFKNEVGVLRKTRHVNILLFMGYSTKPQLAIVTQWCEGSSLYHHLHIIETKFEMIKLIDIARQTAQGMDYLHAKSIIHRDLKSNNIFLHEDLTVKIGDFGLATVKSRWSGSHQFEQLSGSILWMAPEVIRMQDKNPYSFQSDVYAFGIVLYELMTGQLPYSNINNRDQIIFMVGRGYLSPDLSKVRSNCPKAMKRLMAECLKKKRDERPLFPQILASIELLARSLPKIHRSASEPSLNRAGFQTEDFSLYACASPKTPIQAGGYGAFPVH

A word on the pIC50: it is the IC50 on a negative log10 scale, so that one unit is a factor of ten. Turning to `CCCOC(=O)Nc1nc2cc(C3(O)c4ccccc4C(=O)N3Cc3ccccc3)ccc2[nH]1` (stereo not drawn) [Entry 127, propyl {5-[1-hydroxy-3-oxo-2-(phenylmethyl)-2,3-dihydro-1H-isoindol-1-yl]-1H-benzimidazol-2-yl}carbamate], the pIC50 at c-Raf (read-out: cRaf-1 IC50) and at B-Raf (read-out: bRaf IC50) was over 7.00 throughout.
Regarding `C#Cc1ccc(F)c(N2C(=O)c3ccccc3C2(O)c2ccc3nc(NC(=O)OC)[nH]c3c2)c1` (stereo not drawn) [Entry 363, methyl {6-[2-(5-ethynyl-2-fluorophenyl)-1-hydroxy-3-oxo-2,3-dihydro-1H-isoindol-1-yl]-1H-benzimidazol-2-yl}carbamate], the pIC50 at c-Raf (setting [1]) and at B-Raf (setting [2]) was over 7.00 throughout.
As for `O=C(Nc1nc2cc(C3(O)c4ccccc4C(=O)N3Cc3ccccc3)ccc2[nH]1)OCC1CCOC1` (stereo not drawn) [Entry 212, tetrahydrofuran-3-ylmethyl {5-[1-hydroxy-3-oxo-2-(phenylmethyl)-2,3-dihydro-1H-isoindol-1-yl]-1H-benzimidazol-2-yl}carbamate], the pIC50 at c-Raf (read-out: cRaf-1 IC50) and at B-Raf (read-out: bRaf IC50) was over 7.00 throughout.
In the case of `C#Cc1cccc(NC(=O)c2ccccc2C(=O)c2ccc3nc(NC(=O)OC)[nH]c3c2)c1F` [Entry 414, methyl {6-[(2-{[(3-ethynyl-2-fluorophenyl)amino]carbonyl}phenyl)carbonyl]-1H-benzimidazol-2-yl}carbamate], the negative logarithm of the IC50 (pIC50) at c-Raf (setting [1]) and on B-Raf (setting [2]) was over 7.00 each time.
Take `CN(C(=O)c1ccccc1C(=O)c1ccc2c(c1)NC(=O)CO2)c1ccccc1` [Entry 91, N-methyl-2-[(3-oxo-3,4-dihydro-2H-1,4-benzoxazin-6-yl)carbonyl]-N-phenylbenzamide]: the pIC50 on c-Raf (read-out: cRaf-1 IC50) and at B-Raf (read-out: bRaf IC50) was at most 5.00 throughout.
For `O=C(Nc1nc2ccc(C3(O)c4ccccc4C(=O)N3c3cccc(Cl)c3F)cc2[nH]1)OCC1CC1` (stereo not drawn) [Entry 334, cyclopropylmethyl {6-[2-(3-chloro-2-fluorophenyl)-1-hydroxy-3-oxo-2,3-dihydro-1H-isoindol-1-yl]-1H-benzimidazole-2-yl}carbamate], the pIC50 at c-Raf (setting [1]) and on B-Raf (setting [2]) was over 7.00 in each case.
For `COC(=O)Nc1nc2cc(C3(O)c4ccccc4C(=O)N3c3cccc(OCCN(C)C)c3)ccc2[nH]1` (stereo not drawn) [Entry 159, methyl {5-[2-(3-{[2-(dimethylamino)ethyl]oxy}phenyl)-1-hydroxy-3-oxo-2,3-dihydro-1H-isoindol-1-yl]-1H-benzimidazol-2-yl}carbamate], the figures for the negative logarithm of the IC50 (pIC50) at c-Raf (read-out: cRaf-1 IC50) and at B-Raf (read-out: bRaf IC50) were 6.00 to 7.00 and 5.00 to 6.00, respectively.
In the case of `CCNC(=O)Nc1nc2ccc(C3(O)c4ccccc4C(=O)N3c3ccc(F)cc3)cc2[nH]1` (stereo not drawn) [Entry 260, N-ethyl-N′-{6-[2-(4-fluorophenyl)-1-hydroxy-3-oxo-2,3-dihydro-1H-isoindol-1-yl]-1H-benzimidazol-2-yl}urea], the pIC50 at c-Raf (read-out: cRaf-1 IC50) and at B-Raf (read-out: bRaf IC50) was over 7.00 in each case.
Turning to `CN1CCC(COC(=O)Nc2nc3cc(C4(O)c5ccccc5C(=O)N4Cc4ccccc4)ccc3[nH]2)CC1` (stereo not drawn) [Entry 314, (1-methylpiperidin-4-yl)methyl {5-[1-hydroxy-3-oxo-2-(phenylmethyl)-2,3-dihydro-1H-isoindol-1-yl]-1H-benzimidazol-2-yl}carbamate], the negative-log IC50 (pIC50) at c-Raf (setting [1]) and on B-Raf (setting [2]) was over 7.00 throughout.
For the molecule `O=C1COc2ccc(C3(O)c4ccccc4C(=O)N3c3cccc(-c4ccccc4)c3)cc2N1` (stereo not drawn) [Entry 85, 6-(2-biphenyl-3-yl-1-hydroxy-3-oxo-2,3-dihydro-1H-isoindol-1-yl)-2H-1,4-benzoxazin-3(4H)-one], the pIC50 on c-Raf (read-out: cRaf-1 IC50) and at B-Raf (read-out: bRaf IC50) was at most 5.00 in each case.
Consider `COC(=O)Nc1nc2cc(C3(O)c4ccccc4C(=O)N3c3cccc(C(=O)c4ccccc4)c3)ccc2[nH]1` (stereo not drawn) [Entry 234, methyl (5-{1-hydroxy-3-oxo-2-[3-(phenylcarbonyl)phenyl]-2,3-dihydro-1H-isoindol-1-yl}-1H-benzimidazol-2-yl)carbamate], for which the pIC50 on c-Raf (read-out: cRaf-1 IC50) is 6.00 to 7.00; on B-Raf (read-out: bRaf IC50) it was 5.00 to 6.00.
For the molecule `COc1cccc(N2C(=O)c3ccccc3C2(O)c2ccc3[nH]c(Nc4cnccn4)nc3c2)c1` (stereo not drawn) [Entry 391, 3-hydroxy-2-[3-(methyloxy)phenyl]-3-[2-(pyrazin-2-ylamino)-1H-benzimidazol-5-yl]-2,3-dihydro-1H-isoindol-1-one], the pIC50 at c-Raf (setting [1]) and at B-Raf (setting [2]) was over 7.00 each time.
Regarding `O=C1c2ccccc2C(O)(c2ccc3cc[nH]c3c2)N1Cc1ccccc1` (stereo not drawn) [Entry 65, 3-hydroxy-3-(1H-indol-6-yl)-2-(phenylmethyl)-2,3-dihydro-1H-isoindol-1-one], the pIC50 on c-Raf (read-out: cRaf-1 IC50) and at B-Raf (read-out: bRaf IC50) was at most 5.00 in each case.
Turning to `O=C(Nc1nc2cc(C3(O)c4ccccc4C(=O)N3c3cccc(Cl)c3F)ccc2[nH]1)C1CC1` (stereo not drawn) [Entry 335, N-{5-[2-(3-chloro-2-fluorophenyl)-1-hydroxy-3-oxo-2,3-dihydro-1H-isoindol-1-yl]-1H-benzimidazol-2-yl}cyclopropanecarboxamide], the pIC50 on c-Raf (setting [1]) and at B-Raf (setting [2]) was over 7.00 each time.
As for `COC(=O)Nc1nc2ccc(C(=O)c3ccccc3C(=O)Nc3ccc(F)c(C)c3)cc2[nH]1` [Entry 408, methyl {6-[(2-{[(4-fluoro-3-methylphenyl)amino]carbonyl}phenyl)carbonyl]-1H-benzimidazol-2-yl}carbamate], the pIC50 at c-Raf (setting [1]) and at B-Raf (setting [2]) was over 7.00 in each case.
With `CCC(=O)Nc1nc2ccc(C3(O)c4ccccc4C(=O)N3c3ccc(F)cc3)cc2[nH]1` (stereo not drawn) [Entry 275, N-{6-[2-(4-fluorophenyl)-1-hydroxy-3-oxo-2,3-dihydro-1H-isoindol-1-yl]-1H-benzimidazol-2-yl}propanamide], the pIC50 on c-Raf (setting [1]) and at B-Raf (setting [2]) was over 7.00 throughout.
`C#Cc1cc(N2C(=O)c3ccccc3C2(O)c2ccc3[nH]c(NC(=O)OC)nc3c2)c(F)cc1F` (stereo not drawn) [Entry 352, methyl {5-[2-(5-ethynyl-2,4-difluorophenyl)-1-hydroxy-3-oxo-2,3-dihydro-1H-isoindol-1-yl]-1H-benzimidazol-2-yl}carbamate]: the pIC50 at c-Raf (setting [1]) and on B-Raf (setting [2]) was over 7.00 each time.
For the molecule `C#Cc1cccc(N2C(=O)c3cccc(F)c3C2(O)c2ccc3[nH]c(NC(=O)OC)nc3c2)c1F` (stereo not drawn) [Entry 369, methyl {5-[2-(3-ethynyl-2-fluorophenyl)-7-fluoro-1-hydroxy-3-oxo-2,3-dihydro-1H-isoindol-1-yl]-1H-benzimidazol-2-yl}carbamate], the pIC50 on c-Raf (setting [1]) and on B-Raf (setting [2]) was over 7.00 throughout.
On to `COC(=O)Nc1nc2cc(C3(O)c4ccccc4C(=O)N3Cc3cccs3)ccc2[nH]1` (stereo not drawn) [Entry 98, methyl {5-[1-hydroxy-3-oxo-2-(2-thienylmethyl)-2,3-dihydro-1H-isoindol-1-yl]-1H-benzimidazol-2-yl}carbamate], for which the negative logarithm of the IC50 (pIC50) on c-Raf (read-out: cRaf-1 IC50) and on B-Raf (read-out: bRaf IC50) was over 7.00 throughout.
As to `COC(=O)Nc1nc2ccc(C(=O)c3ccccc3C(=O)Nc3cccc(OC)c3)cc2[nH]1` [Entry 397, methyl (6-{[2-({[3-(methyloxy)phenyl]amino}carbonyl)phenyl]carbonyl}-1H-benzimidazol-2-yl)carbamate], the negative logarithm of the IC50 (pIC50) at c-Raf (setting [1]) and at B-Raf (setting [2]) was over 7.00 each time.
For the molecule `COC(=O)Nc1nc2cc(C3(O)c4ccccc4C(=O)N3[C@H](C(=O)OC)C3CCCCC3)ccc2[nH]1` (stereo partly drawn) [Entry 192, methyl (2S)-cyclohexyl[1-hydroxy-1-(2-{[(methyloxy)carbonyl]amino}-1H-benzimidazol-5-yl)-3-oxo-1,3-dihydro-2H-isoindol-2-yl]ethanoate], the negative logarithm of the IC50 (pIC50) at c-Raf (read-out: cRaf-1 IC50) and at B-Raf (read-out: bRaf IC50) was 5.00 to 6.00 in each case.
For the molecule `C#CCOC(=O)Nc1nc2cc(C3(O)c4ccccc4C(=O)N3Cc3ccccc3)ccc2[nH]1` (stereo not drawn) [Entry 108, prop-2-yn-1-yl {5-[1-hydroxy-3-oxo-2-(phenylmethyl)-2,3-dihydro-1H-isoindol-1-yl]-1H-benzimidazol-2-yl}carbamate], the pIC50 on c-Raf (read-out: cRaf-1 IC50) and at B-Raf (read-out: bRaf IC50) was over 7.00 in each case.
In the case of `COC(=O)Nc1nc2cc(C3(O)c4ccccc4C(=O)N3C(C)c3ccc(C)s3)ccc2[nH]1` (stereo not drawn) [Entry 201, methyl (5-{1-hydroxy-2-[1-(5-methyl-2-thienyl)ethyl]-3-oxo-2,3-dihydro-1H-isoindol-1-yl}-1H-benzimidazol-2-yl)carbamate], the pIC50 at c-Raf (read-out: cRaf-1 IC50) and at B-Raf (read-out: bRaf IC50) was over 7.00 in each case.
In the case of `O=C(NCc1ccccc1)Nc1nc2cc(C3(O)c4ccccc4C(=O)N3Cc3ccccc3)ccc2[nH]1` (stereo not drawn) [Entry 169, N-{5-[1-hydroxy-3-oxo-2-(phenylmethyl)-2,3-dihydro-1H-isoindol-1-yl]-1H-benzimidazol-2-yl}-N′-(phenylmethyl)urea], the pIC50 on c-Raf (read-out: cRaf-1 IC50) and at B-Raf (read-out: bRaf IC50) was over 7.00 each time.
Consider `COC(=O)Nc1nc2cc(C3(O)c4ccccc4C(=O)N3c3cccc(N4CCCC4)c3)ccc2[nH]1` (stereo not drawn) [Entry 298, methyl {5-[1-hydroxy-3-oxo-2-(3-pyrrolidin-1-ylphenyl)-2,3-dihydro-1H-isoindol-1-yl]-1H-benzimidazol-2-yl}carbamate], for which the negative-log IC50 (pIC50) on c-Raf (setting [1]) and on B-Raf (setting [2]) was 5.00 to 6.00 in each case.
As for `COC(=O)Nc1nc2cc(C3(O)c4ccccc4C(=O)N3C(C)c3cccc(Cl)c3C)ccc2[nH]1` (stereo not drawn) [Entry 200, methyl (5-{2-[1-(3-chloro-2-methylphenyl)ethyl]-1-hydroxy-3-oxo-2,3-dihydro-1H-isoindol-1-yl}-1H-benzimidazol-2-yl)carbamate], the pIC50 on c-Raf (read-out: cRaf-1 IC50) and at B-Raf (read-out: bRaf IC50) was 5.00 to 6.00 in each case.
For the molecule `COC(=O)Nc1nc2cc(C3(O)c4ccccc4C(=O)N3c3cccc(Cl)c3F)ccc2[nH]1` (stereo not drawn) [Entry 224, methyl {5-[2-(3-chloro-2-fluorophenyl)-1-hydroxy-3-oxo-2,3-dihydro-1H-isoindol-1-yl]-1H-benzimidazol-2-yl}carbamate], the pIC50 on c-Raf (read-out: cRaf-1 IC50) and on B-Raf (read-out: bRaf IC50) was over 7.00 in each case.

For the origin of these results see US7846959B2, “Raf modulators and methods of use” (Exelixis, Inc., priority 2004, dated 2010).
